Results as given in publication PMC9848257, “Design and synthesis of novel rigid dibenzo[b,f]azepines through ring closure technique as promising anticancer candidates against leukaemia and acting as selective topoisomerase II inhibitors and DNA intercalators” (Journal of Enzyme Inhibition and Medicinal Chemistry, 2023).

Tests used:
RPMI-8226 = assay: NCI-60 one-dose screen, RPMI-8226; format: cell-based; conditions: Homo sapiens; RPMI-8226, leukaemia; single dose 10 μM; read-out: Growth inhibition %
Description: (§1) Anti-proliferative effects of the counterparts 4a–g and 5a–g were screened against 60 human cancer cell lines, following the Developmental Therapeutics Program protocol, National Cancer Institute[35].
(§2) The anti-tumour activity of the fourteen synthesised congeners was investigated at the NCI against a panel of 60 cancer cell lines (NCI-60 Cell One-Dose Screen). The tested dibenzo[b,f]azepine derivatives were screened at a single dose level (10 μM), Table 1.

MCF-7 = assay: NCI-60 one-dose screen, MCF-7; format: cell-based; conditions: Homo sapiens, MCF7; MCF-7, breast cancer; single dose 10 μM; read-out: Growth inhibition %
Description: as §1, §2

SNB-19 = assay: NCI-60 one-dose screen, SNB-19; format: cell-based; conditions: Homo sapiens; SNB-19, CNS cancer; single dose 10 μM; read-out: Growth inhibition %
Description: as §1, §2

HCC-2998 = assay: NCI-60 one-dose screen, HCC-2998; format: cell-based; conditions: Homo sapiens; HCC-2998, colon cancer; single dose 10 μM; read-out: Growth inhibition %
Description: as §1, §2

MDA-MB-435 = assay: NCI-60 one-dose screen, MDA-MB-435; format: cell-based; conditions: Homo sapiens; MDA-MB-435, melanoma; single dose 10 μM; read-out: Growth inhibition %
Description: as §1, §2

NCI-H460 = assay: NCI-60 one-dose screen, NCI-H460; format: cell-based; conditions: Homo sapiens; NCI-H460, non-small cell lung cancer; single dose 10 μM; read-out: Growth inhibition %
Description: as §1, §2

IGROV1 = assay: NCI-60 one-dose screen, IGROV1; format: cell-based; conditions: Homo sapiens, IGROV-1; IGROV1, ovarian cancer; single dose 10 μM; read-out: Growth inhibition %
Description: as §1, §2

PC-3 = assay: NCI-60 one-dose screen, PC-3; format: cell-based; conditions: Homo sapiens; PC-3, prostate cancer; single dose 10 μM; read-out: Growth inhibition %
Description: as §1, §2

786-0 = assay: NCI-60 one-dose screen, 786-0; format: cell-based; conditions: Homo sapiens; 786-0, renal cancer; single dose 10 μM; read-out: Growth inhibition %
Description: as §1, §2

SN12C = assay: NCI-60 one-dose screen, SN12C; format: cell-based; conditions: Homo sapiens, renal cancer, single dose 10 μM, read-out: Growth inhibition %
Description: as §1, §2

MOLT-4 = assay: NCI-60 one-dose screen, MOLT-4; format: cell-based; conditions: Homo sapiens; MOLT-4, leukaemia; single dose 10 μM; read-out: Growth inhibition %
Description: as §1, §2

TK-10 = assay: NCI-60 one-dose screen, TK-10; format: cell-based; conditions: Homo sapiens; TK-10, renal cancer; single dose 10 μM; read-out: Growth inhibition %
Description: as §1, §2

topoisomerase II = assay: Topoisomerase II inhibitory assay; format: biochemical; conditions: for IC50: in vitro, doxorubicin co-assayed as reference
Description: Therefore, following the procedure reported by Patra et al., the topoisomerase II activity was evaluated.

UACC-62 = assay: NCI-60 one-dose screen, UACC-62; format: cell-based; conditions: Homo sapiens; UACC-62, melanoma; single dose 10 μM; read-out: Growth inhibition %
Description: as §1, §2

NCI-H522 = assay: NCI-60 one-dose screen, NCI-H522; format: cell-based; conditions: Homo sapiens; NCI-H522, non-small cell lung cancer; single dose 10 μM; read-out: Growth inhibition %
Description: as §1, §2

HCT-116 = assay: NCI-60 one-dose screen, HCT-116; format: cell-based; conditions: Homo sapiens; HCT-116, colon cancer; single dose 10 μM; read-out: Growth inhibition %
Description: as §1, §2

HOP-92 = assay: NCI-60 one-dose screen, HOP-92; format: cell-based; conditions: Homo sapiens; HOP-92, non-small cell lung cancer; single dose 10 μM; read-out: Growth inhibition %
Description: as §1, §2

EKVX = assay: NCI-60 one-dose screen, EKVX; format: cell-based; conditions: Homo sapiens, non-small cell lung cancer, single dose 10 μM, read-out: Growth inhibition %
Description: as §1, §2

UO-31 = assay: NCI-60 one-dose screen, UO-31; format: cell-based; conditions: Homo sapiens; UO-31, renal cancer; single dose 10 μM; read-out: Growth inhibition %
Description: as §1, §2

SK-MEL-28 = assay: NCI-60 one-dose screen, SK-MEL-28; format: cell-based; conditions: Homo sapiens; SK-MEL-28, melanoma; single dose 10 μM; read-out: Growth inhibition %
Description: as §1, §2

OVCAR-5 = assay: NCI-60 one-dose screen, OVCAR-5; format: cell-based; conditions: Homo sapiens; OVCAR-5, ovarian cancer; single dose 10 μM; read-out: Growth inhibition %
Description: as §1, §2

SR = assay: NCI-60 one-dose screen, SR; format: cell-based; conditions: Homo sapiens, leukaemia, single dose 10 μM, read-out: Growth inhibition %
Description: as §1, §2

U251 = assay: NCI-60 one-dose screen, U251; format: cell-based; conditions: Homo sapiens, U-251; U251, CNS cancer; single dose 10 μM; read-out: Growth inhibition %
Description: as §1, §2

NCI/ADR-RES = assay: NCI-60 one-dose screen, NCI/ADR-RES; format: cell-based; conditions: Homo sapiens, ovarian cancer, single dose 10 μM, read-out: Growth inhibition %
Description: as §1, §2

SMILES | inhibition at 10 µM (RPMI-8226) [%] | inhibition at 10 µM (MCF-7) [%] | inhibition at 10 µM (SNB-19) [%] | inhibition at 10 µM (HCC-2998) [%] | inhibition at 10 µM (MDA-MB-435) [%] | inhibition at 10 µM (NCI-H460) [%] | inhibition at 10 µM (IGROV1) [%] | inhibition at 10 µM (PC-3) [%] | inhibition at 10 µM (786-0) [%] | inhibition at 10 µM (SN12C) [%] | melting point [°C] | inhibition at 10 µM (MOLT-4) [%] | inhibition at 10 µM (TK-10) [%] | IC50 (topoisomerase II) [µM] | inhibition at 10 µM (UACC-62) [%] | inhibition at 10 µM (NCI-H522) [%] | inhibition at 10 µM (HCT-116) [%] | inhibition at 10 µM (HOP-92) [%] | inhibition at 10 µM (EKVX) [%] | inhibition at 10 µM (UO-31) [%] | further results
Brc1ccc(-c2nnc(N3c4ccccc4C=Cc4ccccc43)o2)cc1 [Compound 5b, 2-(4-Bromophenyl)-5-(5H-dibenzo[b,f]azepin-5-yl)-1,3,4-oxadiazole] | 17.5 | 30.5 | 15.6 | < 10 | < 10 | 63.5 | 21.6 | 48.5 | 11.3 | 24.2 | 185 to 187 | 35.6 | < 10 | 10.2 | 32.2 | 26.3 | 52.2 | 33.5 | 27.6 | 33.5 | inhibition at 10 µM (SK-MEL-28): 14.1%; inhibition at 10 µM (OVCAR-5): < 10%; inhibition at 10 µM (SR): 73%; inhibition at 10 µM (U251): 47%; inhibition at 10 µM (NCI/ADR-RES): 23.4%
Clc1ccc(-c2nnc(N3c4ccccc4C=Cc4ccccc43)o2)cc1 [Compound 5c, 2-(4-Chlorophenyl)-5-(5H-dibenzo[b,f]azepin-5-yl)-1,3,4-oxadiazole] | 19.2 | 35.6 | 11.2 | < 10 | < 10 | 57.3 | 19.2 | 44.1 | < 10 | 21.9 | 174 to 176 | 20.4 | < 10 | 31.8 | 31.3 | 22.2 | 47.7 | 24 | 20.8 | 33.8 | inhibition at 10 µM (SK-MEL-28): < 10%; inhibition at 10 µM (OVCAR-5): < 10%; inhibition at 10 µM (SR): 67.5%; inhibition at 10 µM (U251): 42.6%; inhibition at 10 µM (NCI/ADR-RES): 14.5%
C1=Cc2ccccc2N(c2nnc(-c3ccc4ccccc4c3)o2)c2ccccc21 [Compound 5f, 2-(5 h-Dibenzo[b,f]azepin-5-yl)-5-(naphthalen-2-yl)-1,3,4-oxadiazole] | 12.1 | 24.4 | < 10 | < 10 | < 10 | 25.1 | 29.1 | 40.9 | < 10 | 15.7 | 201 to 203 | 16.3 | 20.3 | 9.56 | 12.8 | 24.2 | 27.3 | 20.9 | 28.9 | 24.7 | Percentage of topoisomerase II inhibition (topoisomerase II; at the concentration of 100 µM (Figure 3A)): 88%; inhibition at 10 µM (SK-MEL-28): < 10%; inhibition at 10 µM (OVCAR-5): < 10%; inhibition at 10 µM (SR): 58.4%; inhibition at 10 µM (U251): 32.3%; inhibition at 10 µM (NCI/ADR-RES): 12.1%
C1=Cc2ccccc2N(c2nnc(-c3ccccc3)o2)c2ccccc21 [Compound 5a, 2-(5 h-Dibenzo[b,f]azepin-5-yl)-5-phenyl-1,3,4-oxadiazole] | 67.7 | 14.4 | 33.2 | 33.4 | < 10 | < 10 | < 10 | < 10 | 20 | < 10 | 209 to 211 | 16.5 | 16.1 | 15.6 | < 10 | < 10 | 54.2 | 18.3 | < 10 | 39.4 | inhibition at 10 µM (SK-MEL-28): 28%; inhibition at 10 µM (OVCAR-5): < 10%; inhibition at 10 µM (SR): < 10%; inhibition at 10 µM (U251): 20.1%; inhibition at 10 µM (NCI/ADR-RES): < 10%
